Data published in ChEMBL document CHEMBL3580640, “Design, Synthesis, and Structure-Activity Relationships of Pyridine-Based Rho Kinase (ROCK) Inhibitors” (J Med Chem, 2015).

Legend:
Type in all cases: ADME, organism-based
Settings in all cases: in vivo
[1] = AUC in iv dosed rat
Rattus norvegicus [2] = test: Clearance in iv dosed rat
[3] = Cmax in po dosed rat; set-up: route oral
Rattus norvegicus [4] = test: Half life in iv dosed rat
Rattus norvegicus [5] = test: Volume of distribution at steady state in iv dosed rat
[6] = Oral bioavailability in rat
[7] = Half life in po dosed rat
[8] = Tmax in po dosed rat
[9] = Cmax in iv dosed rat; set-up: route intravenous
[10] = AUC in po dosed rat

AUC [1]: 4310 ng·h/mL | clearance (Rattus norvegicus [2]): 3.45 mL/min/kg | Cmax [3]: 3200 ng/mL | t1/2 (Rattus norvegicus [4]): 2.6 h | Vdss (Rattus norvegicus [5]): 0.675 L/kg | bioavailability [6]: 69% | half-life [7]: 3.4 h | Tmax [8]: 3 h | Cmax [9]: 2920 ng/mL | AUC [10]: 32600 ng·h/mL
Structure (SMILES): CS(=O)(=O)Nc1cccc(CC(=O)Nc2cc(-c3ccnc(F)c3)cs2)c1
